Reference: US10596172B2 (Celgene CAR LLC, priority 2008, dated 2020)
Where two headings read alike, the source gives them in different places.

Columns and labels:
[1] = system: Human naïve B cells; assay: Human primary B cell proliferation assay; assay type: cell-based; details: 5 μg/ml α-IgM 72 hours, 3H-thymidine incorporation
Experimental: Human naïve B cells were purified from 100 mL whole blood using a MACS purification kit designed to isolate CD19+, IgD+ cells by negative selection. Purified naïve B cells were resuspended in RPMI complete and stimulated with 5 μg/ml α-IgM for 72 hours. ^3H-Thymidine was included in the culture media for the final 16 h, cells were harvested and ^3H incorporation measured. Inhibition of B cell proliferation correlates with inhibition of BTK substrate phosphorylation after α-IgM stimulation.

[2] = system: B cell lymphoma cell lines; assay: B cell lymphoma proliferation assay; assay type: cell-based
[3] = biological target: BTK (Rattus norvegicus, UniProt Q5S255); assay: BTK occupancy from in vivo samples by ELISA; details: po, rats dosed orally 30 mg/kg
Sequence of BTK (Rattus norvegicus, UniProt Q5S255) (Q5S255 1-660): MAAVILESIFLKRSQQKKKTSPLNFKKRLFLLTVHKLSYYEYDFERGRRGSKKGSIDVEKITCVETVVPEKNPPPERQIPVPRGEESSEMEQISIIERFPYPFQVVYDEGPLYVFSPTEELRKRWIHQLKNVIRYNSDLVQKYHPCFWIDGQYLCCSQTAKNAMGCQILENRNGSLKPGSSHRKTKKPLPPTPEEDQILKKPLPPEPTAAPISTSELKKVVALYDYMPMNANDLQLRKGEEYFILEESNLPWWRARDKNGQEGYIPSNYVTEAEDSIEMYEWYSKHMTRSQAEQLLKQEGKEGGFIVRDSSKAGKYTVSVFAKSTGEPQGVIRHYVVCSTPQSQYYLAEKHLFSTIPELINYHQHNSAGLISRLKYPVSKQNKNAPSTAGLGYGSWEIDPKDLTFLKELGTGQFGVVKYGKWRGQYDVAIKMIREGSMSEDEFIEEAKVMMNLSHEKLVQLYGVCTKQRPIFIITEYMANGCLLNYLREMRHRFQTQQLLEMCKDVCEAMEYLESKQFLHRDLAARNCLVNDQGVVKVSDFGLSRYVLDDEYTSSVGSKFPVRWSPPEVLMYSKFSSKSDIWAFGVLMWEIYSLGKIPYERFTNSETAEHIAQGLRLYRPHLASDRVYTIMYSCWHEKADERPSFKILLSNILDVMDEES
Experimental: All samples were prepared with equal concentrations of Biorad lysis buffer (Hercules, Calif., USA), 0.5% bovine serum albumin in PBS with 0.05% Tween-20 to give a final concentration of 1 μM I-215. Samples were incubated in a mixing plate for 1 hr at room temperature while shaking to allow probe compound I-215 to bind to free BTK. After incubation with I-215, samples were added to a washed, streptavidin-coated ELISA plate (Pierce, Rockford, Ill., USA) and incubated for 1 hr at room temperature while shaking. The plate was then washed with PBS containing 0.05% Tween-20 using an automatic plate washer. Anti-BTK antibody was prepared at 1:1000 dilution in 0.5% BSA in PBS (0.05% Tween-20) and added to the ELISA plate. The plate was incubated for 1 hr at room temperature while shaking. The plate was washed as described above and the secondary HRP antibody was prepared at 1:5000 dilution in 0.5% BSA in PBS (0.05% Tween-20). The plate was incubated and washed as described above. TMB was added to the plate, and OD650 was monitored until reaching 1 OD unit. The reaction was then stopped with addition of H2SO4. The plate was analyzed using Gen 5 software, and a 4 Parameter Logistic curve was employed to quantitate samples. Recombinant BTK (Invitrogen, Carlsbad, Calif., USA) was used for the standard curve.
Rats were dosed orally with 30 mg/kg of compound and spleens were harvested either 2 or 24 hours after compound treatment. Rat spleens were disrupted between two microscope slides coated with frosted glass to recover single cell suspensions. Red blood cells were lysed by incubating with RBC lysis buffer (Boston BioProducts) for 2 minutes at room temperature, the cells were then resuspended in RPMI complete media and pelleted by centrifugation. Rat B cells were isolated by positive selection with B220+ antibody-magnetic bead conjugates, purified by MACS column and lysed in Bio-Rad lysis buffer at a concentration of 10 million cells/100 μl. Lysates were analyzed employing the biotinylated probe compound I-215 in an ELISA protocol as described in detail in Example 278.

[4] = biological target: T1, BTK (Homo sapiens (Human), UniProt Q06187); assay: Omnia assay for potency assessment against BTK; assay type: biochemical; details: [BTK]=5 nm; read-out: BTK Inhibition
T1 sequence (Q06187 whole entry): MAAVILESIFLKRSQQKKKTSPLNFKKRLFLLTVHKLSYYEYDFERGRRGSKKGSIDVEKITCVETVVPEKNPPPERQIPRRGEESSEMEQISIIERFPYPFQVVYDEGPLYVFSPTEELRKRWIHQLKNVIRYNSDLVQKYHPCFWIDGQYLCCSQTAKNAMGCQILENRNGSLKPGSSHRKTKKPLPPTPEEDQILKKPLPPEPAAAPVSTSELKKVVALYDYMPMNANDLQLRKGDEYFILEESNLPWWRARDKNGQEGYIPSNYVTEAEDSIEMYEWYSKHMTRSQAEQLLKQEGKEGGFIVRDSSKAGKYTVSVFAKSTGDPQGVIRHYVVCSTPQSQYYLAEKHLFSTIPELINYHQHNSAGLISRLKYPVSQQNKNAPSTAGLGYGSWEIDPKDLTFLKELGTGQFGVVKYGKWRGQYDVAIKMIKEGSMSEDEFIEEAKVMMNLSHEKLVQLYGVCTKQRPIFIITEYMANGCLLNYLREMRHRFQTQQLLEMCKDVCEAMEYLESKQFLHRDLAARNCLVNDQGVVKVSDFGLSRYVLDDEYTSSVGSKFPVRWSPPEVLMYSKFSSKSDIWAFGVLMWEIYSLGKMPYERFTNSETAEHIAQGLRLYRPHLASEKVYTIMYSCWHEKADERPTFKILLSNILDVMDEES
Experimental: Omnia Assay Protocol for Potency Assessment Against BTK
The modified BTK-optimized reagent conditions for the above protocol are:
[BTK]=5 nm, [ATP]=40 mM, [Y5-Sox]=10 mM (ATP KMapp˜36 mM).

[5] = biological target: ITK (Homo sapiens (Human), UniProt Q08881); assay: Omnia assay for potency assessment against active forms of ITK kinase; assay type: biochemical; details: [ITK]=10 nM, [ATP]=25 μM, [Y6-Sox]=10 μM; read-out: ITK Inhibition
Sequence of ITK (Q08881 whole entry): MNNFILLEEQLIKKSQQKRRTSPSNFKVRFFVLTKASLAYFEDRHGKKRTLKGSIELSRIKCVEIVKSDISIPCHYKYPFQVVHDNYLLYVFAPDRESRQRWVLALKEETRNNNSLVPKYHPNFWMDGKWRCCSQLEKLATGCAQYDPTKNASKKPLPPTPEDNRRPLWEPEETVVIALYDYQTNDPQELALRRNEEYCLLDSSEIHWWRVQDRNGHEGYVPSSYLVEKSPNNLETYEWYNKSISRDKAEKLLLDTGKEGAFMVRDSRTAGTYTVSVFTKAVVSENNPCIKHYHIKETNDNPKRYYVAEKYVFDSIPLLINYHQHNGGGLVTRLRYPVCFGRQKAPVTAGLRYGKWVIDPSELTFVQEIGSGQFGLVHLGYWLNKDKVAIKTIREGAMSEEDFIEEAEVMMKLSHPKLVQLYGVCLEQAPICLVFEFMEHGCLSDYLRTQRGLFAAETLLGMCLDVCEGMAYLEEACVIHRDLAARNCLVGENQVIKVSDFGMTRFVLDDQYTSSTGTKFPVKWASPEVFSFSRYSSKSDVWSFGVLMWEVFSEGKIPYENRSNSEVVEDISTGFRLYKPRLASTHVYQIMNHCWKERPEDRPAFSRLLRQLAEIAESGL
Experimental: [ITK]=10 nM, [ATP]=25 μM, [Y6-Sox]=10 μM (ATP KMapp=33 μM).

[6] = biological target: EGFR-WT (Homo sapiens (Human), UniProt P00533); assay: Omnia assay for potency assessment against EGFR (WT); assay type: biochemical; details: wild-type EGFR; read-out: EGFR Wild Type Inhibition
[7] = biological target: T1, BTK; assay: BTK Ramos cellular assay (phosphorylation of BTK substrate PLCγ2); assay type: cell-based; details: Ramos cells, compound 1 hour, anti-human IgM stimulation, read-out: BTK Inhibition (BTK Ramos Cellular Inhibition Data)
Experimental: Ramos cells were grown in suspension in T225 flasks, spun down, resuspended in 50 ml serum-free media and incubated for 1 hour. […] Ramos cells were incubated with compound for 1 hour, washed again and resuspended in 100 ul serum-free media. Cells were then stimulated with 1 μg of goat F(ab′)2 Anti-Human IgM and incubated on ice for 10 minutes to activate B cell receptor signaling pathways. After 10 minutes, the cells were washed once with PBS and then lysed on ice with Invitrogen Cell Extraction buffer. 16 μg total protein from lysates were loaded on gel and blots were probed for phosphorylation of the BTK substrate PLCγ2.

[8] = biological target: JAK3 (Homo sapiens (Human), UniProt P52333); assay: Omnia assay for potency assessment against the active form of JAK3; assay type: biochemical; details: read-out: JAK3 Inhibition
Sequence of JAK3 (P52333 whole entry): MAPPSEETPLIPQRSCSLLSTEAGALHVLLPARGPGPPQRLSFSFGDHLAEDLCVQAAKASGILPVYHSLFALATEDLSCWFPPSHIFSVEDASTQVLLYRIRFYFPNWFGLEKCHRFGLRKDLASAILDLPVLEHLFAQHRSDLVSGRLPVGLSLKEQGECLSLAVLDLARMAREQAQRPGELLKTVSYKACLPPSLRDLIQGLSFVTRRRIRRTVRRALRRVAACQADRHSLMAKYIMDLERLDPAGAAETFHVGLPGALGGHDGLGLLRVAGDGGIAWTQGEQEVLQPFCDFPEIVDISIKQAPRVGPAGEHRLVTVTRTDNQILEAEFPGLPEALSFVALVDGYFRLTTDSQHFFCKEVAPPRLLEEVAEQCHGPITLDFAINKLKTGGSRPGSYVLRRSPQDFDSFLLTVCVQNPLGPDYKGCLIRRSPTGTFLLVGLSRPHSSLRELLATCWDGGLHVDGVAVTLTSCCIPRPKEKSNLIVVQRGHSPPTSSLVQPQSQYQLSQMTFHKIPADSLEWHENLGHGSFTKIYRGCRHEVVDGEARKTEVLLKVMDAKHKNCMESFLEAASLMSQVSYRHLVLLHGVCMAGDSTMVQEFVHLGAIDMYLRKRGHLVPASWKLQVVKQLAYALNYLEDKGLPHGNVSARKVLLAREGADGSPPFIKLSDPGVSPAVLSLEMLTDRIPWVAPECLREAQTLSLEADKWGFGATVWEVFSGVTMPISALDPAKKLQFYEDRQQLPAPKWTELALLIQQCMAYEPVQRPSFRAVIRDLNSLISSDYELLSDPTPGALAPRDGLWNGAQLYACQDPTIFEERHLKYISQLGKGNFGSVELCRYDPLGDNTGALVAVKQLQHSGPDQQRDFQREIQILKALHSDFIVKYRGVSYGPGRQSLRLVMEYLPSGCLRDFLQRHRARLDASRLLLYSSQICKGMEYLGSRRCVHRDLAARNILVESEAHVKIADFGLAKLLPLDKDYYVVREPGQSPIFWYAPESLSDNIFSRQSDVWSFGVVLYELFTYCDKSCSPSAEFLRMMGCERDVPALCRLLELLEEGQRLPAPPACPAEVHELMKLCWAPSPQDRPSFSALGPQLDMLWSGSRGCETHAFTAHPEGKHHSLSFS
Experimental: Briefly, 10× stocks of EGFR-WT (PV3872) from Invitrogen and EGFR-T790M/L858R (40350) from BPS Bioscience, San Diego, Calif., 1.13×ATP (AS001A) and appropriate Tyr-Sox conjugated peptide substrates (KCZ1001) were prepared in 1× kinase reaction buffer consisting of 20 mM Tris, pH 7.5, 5 mM MgCl2, 1 mM EGTA, 5 mM β-glycerophosphate, 5% glycerol (10× stock, KB002A) and 0.2 mM DTT (DS001A).
The Omnia Assay Protocol for potency assessment against JAK3 was performed in a substantially similar manner as that described in Example 251 above except that the modified JAK3-optimized reagent conditions were:
[JAK3]=5 nM, [ATP]=5 μM, [Y12-Sox]=5 μM (ATP KMapp˜5 μM).

[9] = biological target: T1, BTK; assay: Washout experiment with Ramos cells; assay type: cell-based; details: 100 nM compound 1 hour, then washout
Experimental: Ramos cells were serum starved for one hour in RPMI media +1% glutamine at 37° C. After starvation, Ramos cells were treated with 100 nM compound diluted in serum free RPMI media for 1 hour. After compound treatment, the media was removed and cells were washed with compound-free media. Subsequently, Ramos cells were washed every 2 hours and resuspended in fresh compound-free media. Cells were collected at specified timepoints, treated with 1 ug anti-human IgM (Southern Biotech cat #2022-01) for 10 minutes on ice to induce BCR signaling and then washed in PBS. Ramos cells were then lysed in Cell Extraction Buffer (Invitrogen FNN0011) supplemented with Roche complete protease inhibitor tablets (Roche 11697498001) and phosphatase inhibitors (Roche 04 906 837 001) and 18 ug total protein lysate was loaded in each lane. Inhibition of BTK kinase activity was assayed by measuring its substrate (PLCγ2) phosphorylation by western blot with phospho-specific antibodies from Cell Signaling Technologies cat #3871. The results of this experiment with compounds I-2, I-4 and I-7 are depicted in FIGS. 1, 2 and 3.

[10] = biological target: TEC kinase (Homo sapiens (Human), UniProt P42680); assay: Mass spectrometry for TEC kinase (tryptic digest); assay type: binding; details: 3 hrs at 10x excess
Sequence of TEC kinase (P42680 whole entry): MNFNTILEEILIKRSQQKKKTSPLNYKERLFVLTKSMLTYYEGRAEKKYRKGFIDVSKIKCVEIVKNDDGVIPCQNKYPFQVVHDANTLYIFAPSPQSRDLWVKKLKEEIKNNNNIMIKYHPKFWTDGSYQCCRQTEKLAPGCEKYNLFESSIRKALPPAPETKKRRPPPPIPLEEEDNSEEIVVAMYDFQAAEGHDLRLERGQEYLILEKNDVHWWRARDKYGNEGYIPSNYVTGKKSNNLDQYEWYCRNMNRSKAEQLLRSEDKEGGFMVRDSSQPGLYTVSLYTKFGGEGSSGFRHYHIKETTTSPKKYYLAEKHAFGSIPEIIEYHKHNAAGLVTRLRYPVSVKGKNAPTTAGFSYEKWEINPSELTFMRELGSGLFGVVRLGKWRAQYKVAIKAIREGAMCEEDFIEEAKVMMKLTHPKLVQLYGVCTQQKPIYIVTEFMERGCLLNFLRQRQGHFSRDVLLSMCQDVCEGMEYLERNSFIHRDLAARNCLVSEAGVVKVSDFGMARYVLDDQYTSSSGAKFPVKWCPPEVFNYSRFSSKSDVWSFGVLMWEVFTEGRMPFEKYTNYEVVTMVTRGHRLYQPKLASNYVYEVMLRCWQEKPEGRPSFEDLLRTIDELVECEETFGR
Experimental: (§1) TEC kinase (45 pmols; Invitrogen) was incubated with (I-2) (450 pmols) for 3 hrs at 10× excess prior to tryptic digestion. Iodoacetamide was used as the alkylating agent after compound incubation. […] For tryptic digests a 5 ul aliquot (7.5 pmols) was diluted with 15 ul of 0.1% TFA prior to micro C18 Zip Tipping directly onto the MALDI target using alpha cyano-4-hydroxy cinnamic acid as the matrix (5 mg/ml in 0.1% TFA:Acetonitrile 50:50).
As depicted in FIG. 6, the expected peptide ([…]) to be modified was immediately evident after reaction with I-2 (MI mass of 359.17 Da) at MH+ of 1294.72. The peptide was also quite evident in the control sample as modified by Iodacetamide at MH+ of 992.56. […] There was no evidence of other modified peptides.
For tryptic digests the instrument was set in Reflectron mode with a pulsed extraction setting of 2200. Calibration was done using the Laser Biolabs Pep Mix standard ([…], 1296.69, 1672.92, 2093.09, 2465.20). For CID/PSD analysis the peptide was selected using cursors to set ion gate timing and fragmentation occurred at a laser power about 20% higher and He was used as the collision gas for CID. Calibration for fragments was done using the P14R fragmentation calibration for the Curved field Reflectron.
as §1, with “(I-4)” for “(I-2)”
As depicted in FIG. 7, the expected peptide ([…]) to be modified was immediately evident at MH+ of 1355.72. This is the mass to be expected when compound I-4, with an adduct mass of 420.21, is added to the peptide mass of 935.51. The peptide was also quite evident in the control sample as modified by Iodacetamide at MH^+ of 992.56. […] There was no evidence of other modified peptides. […]

[11] = Homo sapiens, DOHH-2, DOHH2 B cell lymphoma cell line, read-out: EC50 (μM) DOHH2

Compound	EC50 [2, 11] [µM]	IC50 [4] [µM]	IC50 [5] [µM]	IC50 [6] [µM]	IC50 [7] [µM]	also measured
C=CC(=O)N1CCC[C@@H](Oc2nc(Nc3cccc(OC)c3)ncc2F)C1 [Compound I-190, (R)-1-(3-(5-fluoro-2-(3-methoxyphenylamino)pyrimidin-4-yloxy)piperidin-1-yl)prop-2-en-1-one]	> 10	–	–	–	–	EC50 [1]: 0.01 to 0.1 µM; receptor occupancy at 30 mg/kg ([3]; spleen B cells harvested 2 hours after treatment, read-out: % BTK Occupancy 2 h): 18%; receptor occupancy at 30 mg/kg ([3]; spleen B cells harvested 24 hours after treatment, read-out: % BTK Occupancy 24 h): 13%
4-(3-acrylamidophenoxy)-2-(3-methoxyphenylamino)-pyrimidine-5-carboxylic acid phenylamide [Compound I-200]	–	< 0.01	> 10	< 0.01	–	–
C=CC(=O)Nc1cccc(Oc2nc(Nc3cccc(OC)c3)ncc2C(N)=O)c1 [Compound I-178, 4-(3-acrylamidophenoxy)-2-(3-methoxyphenylamino)pyrimidine-5-carboxylic Acid Amide]	1 to 10	< 0.01	0.01 to 0.1	< 0.01	0.01 to 0.1	EC50 ([2]; DHL4 B cell lymphoma cell line, read-out: EC50 (μM) DHL4): > 10 µM; EC50 ([2]; Homo sapiens, WSUDLCL2, WSU-DLCL2 B cell lymphoma cell line, read-out: EC50 (μM) WSU-DLCL2): > 10 µM
CCC(=O)Nc1cccc(Nc2nc(Nc3ccccc3)ncc2C)c1 [I^R-7, N-(3-(5-methyl-2-(phenylamino)pyrimidin-4-ylamino)phenyl) propionamide]	–	–	–	–	–	EC50 [1]: > 1 µM; IC50 [8]: 1 to 10 µM
C=CC(=O)N1CCC[C@@H](Oc2nc(Nc3ccc(OC)nc3)ncc2F)C1 [Compound I-180, (R)-1-(3-(5-fluoro-2-(6-methoxypyridin-3-ylamino)pyrimidin-4-yloxy)piperidin-1-yl)prop-2-en-1-one]	–	< 0.01	0.1 to 1	0.1 to 1	0.1 to 1	–
C=CC(=O)Nc1cccc(Nc2ncc(C)c(Nc3cccc(C)c3)n2)c1 [Compound I-2, N-(3-(5-methyl-4-(m-tolylamino)pyrimidin-2-ylamino)phenyl)acrylamide]	0.1 to 1	–	–	–	–	BTK Inhibition Type [9]: irreversible; covalent modification of TEC kinase peptide GCLLNFLR (Cys449) by mass spectrometry [10]: reaction was complete; IC50 [8]: < 0.01 µM
C=CC(=O)Nc1cccc(Oc2nc(Nc3cccc(OC)c3)ncc2C(=O)NC2CC2)c1 [Compound I-177, 4-(3-acrylamidophenoxy)-2-(3-methoxyphenylamino)-pyrimidine-5-carboxylic Acid Cyclopropylamide]	–	< 0.01	0.01 to 0.1	< 0.01	0.1 to 1	–
